Measured values as given in EP3498714B1 (priority 2017, dated 2019).
In brackets after ≈: the same amount, converted by molar mass. Like-named read-outs stand apart in the source and are kept apart here.

Key:
[1] = test system: Acinetobacter baumannii DSM-30008; assay: Microbroth dilution assay (MIC); format: cell-based; details: for Minimum inhibitory concentrations (MIC): 18-24 h
Method: (§1) Bacterial strains. All microorganisms were obtained from the German Collection of Microorganisms and Cell Cultures (Deutsche Sammlung für Mikroorganismen und Zellkulturen, DSMZ) and the American Type Culture Collection (ATCC) or were part of our internal strain collection.
(§2) Antimicrobial Testing. Sorangicin A (1) and Neosorangicin A (2) were tested in microbroth dilution assays on a panel of Gram-positive and Gram-negative bacteria. Overnight cultures were prepared from cryopreserved cultures and were diluted to achieve a final inoculum of 10^4-10^5 cfu/mL. Serial dilutions of compounds in DMSO were prepared in sterile 96-well plates in the test medium (cation-adjusted Müller-Hinton broth; supplemented with 2% (w/v) NaCl for S. aureus and 2.5% (v/v) lysed horse blood for Enterococcus and Streptococcus spp.) The cell suspension was added and microorganisms were grown for 18-24 h at either 30°C or 37°C. Streptococci and enterococci were grown under microaerophilic conditions. Growth inhibition was assessed by visual inspection and given MIC values are the lowest concentration of antibiotic at which there was no visible growth. Table 2. Antimicrobial activity; Minimum inhibitory concentrations (MIC, µg/mL) of neosorangicin A (2), sorangicin A (1), and a reference antibiotic (RIF; Rifampicin) on selected Gram-positive (I) and Gram-negative (II) species.

[2] = test system: Enterococcus faecalis DSM-20478; assay: Microbroth dilution assay (MIC); format: cell-based; details: 2.5% lysed horse blood, microaerophilic; for Minimum inhibitory concentrations (MIC): 18-24 h
Method: as §1, §2

[3] = test system: Enterococcus faecium DSM-20477; assay: Microbroth dilution assay (MIC); format: cell-based; details: 2.5% lysed horse blood, microaerophilic; for Minimum inhibitory concentrations (MIC): 18-24 h
Method: as §1, §2

[4] = test system: Escherichia coli (TolC-deficient); assay: Microbroth dilution assay (MIC); format: cell-based; details: for Minimum inhibitory concentrations (MIC): Escherichia coli (TolC-deficient), 18-24 h
Method: as §1, §2

[5] = test system: Escherichia coli DSM-1116; assay: Microbroth dilution assay (MIC); format: cell-based; details: for Minimum inhibitory concentrations (MIC): 18-24 h
Method: as §1, §2

[6] = test system: Escherichia coli DSM-26863 (tolC3); assay: Microbroth dilution assay (MIC); format: cell-based; details: for Minimum inhibitory concentrations (MIC): Escherichia coli DSM-26863 (tolC3), 18-24 h
Method: as §1, §2

[7] = test system: Klebsiella pneumoniae DSM-30104; assay: Microbroth dilution assay (MIC); format: cell-based; details: for Minimum inhibitory concentrations (MIC): 18-24 h
Method: as §1, §2

[8] = test system: Pseudomonas aeruginosa DSM-1128; assay: Microbroth dilution assay (MIC); format: cell-based; details: for Minimum inhibitory concentrations (MIC): 18-24 h
Method: as §1, §2

[9] = test system: Staphylococcus aureus ATCC29213; assay: Microbroth dilution assay (MIC); format: cell-based; details: 18-24 h, 2% NaCl
Method: as §1, §2

[10] = test system: Staphylococcus aureus DSM-346; assay: Microbroth dilution assay (MIC); format: cell-based; details: 2% NaCl; for Minimum inhibitory concentrations (MIC): 18-24 h
Method: as §1, §2

[11] = test system: Staphylococcus aureus Newman (Rif^R); assay: Microbroth dilution assay (MIC); format: cell-based; details: for Minimum inhibitory concentrations (MIC): Staphylococcus aureus Newman (Rif^R), 18-24 h, 2% NaCl; for activity on rifampicin-resistant (Rif^R) derivative of S. aureus Newman: result in words
Method: as §1, §2

[12] = test system: Staphylococcus aureus Newman; assay: Microbroth dilution assay (MIC); format: cell-based; details: 18-24 h, 2% NaCl
Method: as §1, §2

[13] = test system: Streptococcus pneumoniae DSM-11865; assay: Microbroth dilution assay (MIC); format: cell-based; details: 2.5% lysed horse blood, microaerophilic; for Minimum inhibitory concentrations (MIC): 18-24 h
Method: as §1, §2

[14] = test system: Escherichia coli DSM-1116 + 3 µg/ml PMBN; assay: Microbroth dilution assay (MIC) with PMBN; format: cell-based; details: for Minimum inhibitory concentrations (MIC): 18-24 h
Method: as §1, §2
However, similar to 1, neosorangicin A (2) was not active on a rifampicin-resistant (Rif^R) derivative of S. aureus Newman, which confirms overlapping binding sites on RNA polymerase. […] In addition, the MIC values of 2 on efflux-deficient E. coli mutants (TolC as part of the AcrAB multidrug efflux system) were decreased.

S. aureus Newman = assay: MIC in RPMI-1640 macrophage growth medium; format: cell-based; details: RPMI-1640 macrophage growth medium supplemented with 0.5% (v/v) FBS
Method: Determination of intracellular efficiency. For infection experiments, cells were seeded in 24-well plates in RPMI-1640 supplemented with 10% FBS and 150 nM phorbol 12-myristate 13-acetate (PMA) at a concentration of 10^5 cells/well. After 2 d, the cells were differentiated into macrophages and reached a cell density of ca. 2 x 10^5 cells/well. The medium was then removed and the cells were washed twice with PBS. An inoculum of ca. 2×10^6 CFU (colony-forming units) of S. aureus Newman in log phase (multiplicity of infection, MOI=10) was added to each well in RPMI/10% FBS and the plates were incubated at 37 °C and 5% CO2 in a water vapor-saturated atmosphere. The inoculum was checked by serial dilution and plating on CASO agar (1.5% peptone casein, 0.5% peptone soymeal, 0.5% NaCl, 1.5% agar, pH 7.3). After 2 h, the infected cells were washed three times with PBS (phosphate-buffered saline; pH 7.4) and incubated with fresh growth medium containing 10 µg/mL lysostaphin (≥500 U/mg) for 30 min in order to kill remaining extracellular bacteria. The initial load (Control t0) was checked by recovery of intracellular bacteria and plating on CASO agar. After three times washing with PBS the test compounds were added in RPMI-1640/0.5% FBS at the given concentrations for 18 h. After repeated washing with PBS the intracellular bacteria were recovered by adding ice-cooled water for 10 min and the bacterial suspensions were further diluted in 0.9% (w/v) NaCl prior to plating on CASO agar. The plates were incubated overnight at 37 °C and colonies were counted. The MIC values on S. aureus Newman in RPMI-1640 macrophage growth medium supplemented with 0.5% (v/v) fetal bovine serum (FBS) for neosorangicin A (2), sorangicin A (1) and the reference antibiotic rifampicin (RIF) were 0.01, 0.13 and 0.01 µg/mL, respectively. Human THP-1 macrophages were infected with S. aureus at an MOI (multiplicity of infection) of 10. After killing of extracellular bacteria, the cells were treated for 18 h with the antibiotics at their respective 1x and 8x MIC. […]

S. aureus RNA polymerase = target: T1, S. aureus RNA polymerase (Staphylococcus aureus, UniProt P47768); assay: RNA polymerase inhibition assay (ProFoldin kit); format: biochemical
T1 construct: purchased ProFoldin, MA
T1 sequence (P47768 whole entry): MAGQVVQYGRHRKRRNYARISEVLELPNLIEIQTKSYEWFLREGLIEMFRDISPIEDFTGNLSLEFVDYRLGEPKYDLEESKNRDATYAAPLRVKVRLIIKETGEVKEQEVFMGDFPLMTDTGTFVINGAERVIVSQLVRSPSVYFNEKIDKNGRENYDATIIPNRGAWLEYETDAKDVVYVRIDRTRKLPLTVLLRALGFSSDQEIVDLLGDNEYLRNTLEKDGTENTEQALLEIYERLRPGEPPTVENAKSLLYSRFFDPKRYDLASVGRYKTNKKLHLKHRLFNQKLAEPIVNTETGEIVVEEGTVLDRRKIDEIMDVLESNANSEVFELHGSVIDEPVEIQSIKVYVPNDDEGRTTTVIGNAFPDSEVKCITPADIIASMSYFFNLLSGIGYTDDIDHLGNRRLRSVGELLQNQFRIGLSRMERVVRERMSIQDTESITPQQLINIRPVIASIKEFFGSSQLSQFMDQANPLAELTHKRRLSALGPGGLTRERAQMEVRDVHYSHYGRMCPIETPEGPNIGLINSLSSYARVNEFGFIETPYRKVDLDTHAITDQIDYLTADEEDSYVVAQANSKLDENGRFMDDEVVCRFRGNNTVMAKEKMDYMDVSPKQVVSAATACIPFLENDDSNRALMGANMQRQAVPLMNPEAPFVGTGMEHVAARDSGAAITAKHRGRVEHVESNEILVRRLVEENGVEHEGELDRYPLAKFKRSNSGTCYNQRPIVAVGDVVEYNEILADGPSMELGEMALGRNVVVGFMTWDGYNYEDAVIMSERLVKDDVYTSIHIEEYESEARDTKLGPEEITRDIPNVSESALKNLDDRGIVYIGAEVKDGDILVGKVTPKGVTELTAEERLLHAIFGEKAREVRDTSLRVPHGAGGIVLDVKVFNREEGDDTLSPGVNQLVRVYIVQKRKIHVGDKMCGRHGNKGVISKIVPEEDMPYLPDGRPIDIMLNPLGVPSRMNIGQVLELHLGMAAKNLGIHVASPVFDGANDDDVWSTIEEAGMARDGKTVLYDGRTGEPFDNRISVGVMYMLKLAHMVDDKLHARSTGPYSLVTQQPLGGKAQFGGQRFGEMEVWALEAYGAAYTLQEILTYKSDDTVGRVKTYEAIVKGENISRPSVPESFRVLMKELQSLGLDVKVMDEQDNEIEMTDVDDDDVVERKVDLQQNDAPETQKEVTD
Method: The inhibition of S. aureus RNA polymerase by Sorangicin derivatives 1 and 2 was tested in vitro (bacterial RNA Polymerase Assay Kit; ProFoldin, MA). The samples were prepared and analyzed according to the manufacturer's protocol with slight modifications. In brief, serial dilutions (concentration range: 0.1 nM - 10 µM) of rifampicin, sorangicin A (1) and neosorangicin A (2) in black 384-well plates (low-volume, non-binding surface; Corning) were incubated for 1 h at room temperature with 25 nM RNA polymerase from S. aureus in assay buffer (42.5 mM HEPES, 42.5 mM NH4Cl, 2 mM DTT, 4 mM MgCl2, 0.005 % (v/v) Tween-20; pH 7.5) containing 0.5 mM NTPs and 1x DNA template. The reaction was monitored by incubation with a fluorescent probe for 5 min and measurement of the fluorescence intensity at 535 nm after excitation at 485 nm (Tecan Infinite M200PRO). Half-inhibitory concentrations (IC50) were determined in two independent experiments by sigmoidal curve fitting and given values are IC50 ± SD.

[15] = test system: intracellular S. aureus Newman; assay: Intracellular efficacy in infected THP-1 macrophages; format: cell-based; details: intracellular S. aureus Newman in PMA-differentiated THP-1 macrophages; MOI 10; 18 h treatment at 1x and 8x MIC
Method: (§3) Cells. Human acute monocytic leukemia THP-1 cells (ACC-16) were obtained from the German Collection of Microorganisms and Cell Cultures (DSMZ) and were maintained under conditions recommended by the depositor.
Determination of intracellular efficiency. For infection experiments, cells were seeded in 24-well plates in RPMI-1640 supplemented with 10% FBS and 150 nM phorbol 12-myristate 13-acetate (PMA) at a concentration of 10^5 cells/well. After 2 d, the cells were differentiated into macrophages and reached a cell density of ca. 2 x 10^5 cells/well. The medium was then removed and the cells were washed twice with PBS. An inoculum of ca. 2×10^6 CFU (colony-forming units) of S. aureus Newman in log phase (multiplicity of infection, MOI=10) was added to each well in RPMI/10% FBS and the plates were incubated at 37 °C and 5% CO2 in a water vapor-saturated atmosphere. The inoculum was checked by serial dilution and plating on CASO agar (1.5% peptone casein, 0.5% peptone soymeal, 0.5% NaCl, 1.5% agar, pH 7.3). After 2 h, the infected cells were washed three times with PBS (phosphate-buffered saline; pH 7.4) and incubated with fresh growth medium containing 10 µg/mL lysostaphin (≥500 U/mg) for 30 min in order to kill remaining extracellular bacteria. […] The plates were incubated overnight at 37 °C and colonies were counted. […]

Human THP-1 macrophages = assay: Toxicity towards THP-1 macrophages (microscopic control); format: cell-based; details: 18 h treatment at 1x and 8x MIC
Method: • Figure 1. Chemical structures of sorangicin A (1) and of a compound according to the present invention - neosorangicin A - (2). • Figure 2. A) Reduction of intracellular S. aureus Newman (CFU: colony-forming unit) in PMA-differentiated THP-1 cells after 18 h treatment with rifampicin (RIF), neosorangicin A (2) and sorangicin A (1) at their respective 1x and 8x MIC. B) Microscopic control of THP-1 cells that were either treated with neosorangicn A (2) or 0.5% (v/v) DMSO as solvent control. • Figure 3. Comparison of sorangicin and neosorangicin biosynthetic pathways. Wavy bond symbolize phosphopantheteinyl arms. ACP domains are shown as small, unlabeled circles. Domains that are missing from one of the two pathways are shown as asterisks.
as §3
Determination of intracellular efficiency. For infection experiments, cells were seeded in 24-well plates in RPMI-1640 supplemented with 10% FBS and 150 nM phorbol 12-myristate 13-acetate (PMA) at a concentration of 10^5 cells/well. After 2 d, the cells were differentiated into macrophages and reached a cell density of ca. 2 x 10^5 cells/well. […] The plates were incubated overnight at 37 °C and colonies were counted. […]

[16] = DSM1116, 18-24 h, read-out: Minimum inhibitory concentrations (MIC)
[17] = read-out: Minimum inhibitory concentrations (MIC)
[18] = purified S. aureus RNA polymerase 25 nM, 1 h at room temperature, IC50 ± SD, two independent experiments, read-out: IC50

Compound	Minimum inhibitory concentrations (MIC) [1]	Minimum inhibitory concentrations (MIC) [2]	Minimum inhibitory concentrations (MIC) [3]	Minimum inhibitory concentrations (MIC) [4]	Minimum inhibitory concentrations (MIC) [5]	Minimum inhibitory concentrations (MIC) [6]	Minimum inhibitory concentrations (MIC) [7]	Minimum inhibitory concentrations (MIC) [8]	Minimum inhibitory concentrations (MIC) [9]	Minimum inhibitory concentrations (MIC) [10]	Minimum inhibitory concentrations (MIC) [11]	activity on rifampicin-resistant (Rif^R) derivative of S. aureus Newman [11]	Minimum inhibitory concentrations (MIC) [12]	Minimum inhibitory concentrations (MIC) [13]	Minimum inhibitory concentrations (MIC) [14]	MIC values on S. aureus Newman (S. aureus Newman)	IC50 (S. aureus RNA polymerase; [18])	also measured
CO[C@H]1/C=C/O[C@@]2(C)Oc3c(C)c(O)c4c(O)c(c(/C=N/N5CCN(C)CC5)c(O)c4c3C2=O)NC(=O)/C(C)=C\C=C\[C@H](C)[C@H](O)[C@@H](C)[C@@H](O)[C@@H](C)[C@H](OC(C)=O)[C@@H]1C [RIF, Rifampicin]																		MIC ([1]; DSM30008, 18-24 h, read-out: Minimum inhibitory concentrations (MIC)): 1.6 µg/mL (≈ 1.94 µM); MIC ([2]; DSM20478, 18-24 h, read-out: Minimum inhibitory concentrations (MIC)): 6.4 µg/mL (≈ 7.78 µM); MIC ([3]; DSM20477, 18-24 h, read-out: Minimum inhibitory concentrations (MIC)): > 6.4 µg/mL; MIC ([4]; Escherichia coli, read-out: Minimum inhibitory concentrations (MIC)): 6.4 µg/mL (≈ 7.78 µM); MIC [5, 16]: 6.4 µg/mL (≈ 7.78 µM); MIC ([6]; Escherichia coli, DSM26863, read-out: Minimum inhibitory concentrations (MIC)): 6.4 µg/mL (≈ 7.78 µM); MIC ([7]; DSM30104, 18-24 h, read-out: Minimum inhibitory concentrations (MIC)): 6.4 µg/mL (≈ 7.78 µM); MIC ([8]; DSM1128, 18-24 h, read-out: Minimum inhibitory concentrations (MIC)): > 6.4 µg/mL; MIC [9, 17]: 0.01 µg/mL (≈ 0.0122 µM); MIC ([10]; DSM346, 18-24 h, read-out: Minimum inhibitory concentrations (MIC)): 0.006 µg/mL (≈ 0.00729 µM); MIC ([11]; Staphylococcus aureus, NEWMAN, read-out: Minimum inhibitory concentrations (MIC)): > 6.4 µg/mL; MIC [12, 17]: 0.01 µg/mL (≈ 0.0122 µM); MIC ([13]; DSM11865, 18-24 h, read-out: Minimum inhibitory concentrations (MIC)): 0.1 µg/mL (≈ 0.122 µM); MIC [14, 16]: 0.4 µg/mL (≈ 0.486 µM); MIC (S. aureus Newman; Staphylococcus aureus, NEWMAN): 0.01 µg/mL (≈ 0.0122 µM); IC50 (S. aureus RNA polymerase): 30 ± 20 nM
neosorangicin A [compound 2]	8 µg/mL	0.5 µg/mL	8 µg/mL	1 µg/mL	8 µg/mL	2 µg/mL	8 µg/mL	8 µg/mL	0.01 µg/mL	0.25 µg/mL	> 64 µg/mL	not active	0.01 µg/mL	0.5 µg/mL	0.25 µg/mL	0.01 µg/mL	60 ± 10 nM	reduction of the bacterial load [15]: 3 Log; toxicity towards the human macrophages (Human THP-1 macrophages): without displaying any apparent toxicity
sorangicin A [compound 1]	8 µg/mL	2 µg/mL	16 µg/mL	8 µg/mL	16 µg/mL	8 µg/mL	16 µg/mL	32 µg/mL	0.03 µg/mL	1 µg/mL	> 64 µg/mL	not active	0.1 µg/mL	32 µg/mL	0.25 µg/mL	0.13 µg/mL	210 ± 120 nM	
